# Results taken from patent US20110098296A1, “Thiazole And Oxazole Kinase Inhibitors” (priority 2007, published 2011).
# Key:
# Colo205 tumor cells = assay: Method C: Cell Growth Inhibition Assay (CellTiter-Glo), Colo205; type: cell-based; settings: Homo sapiens, COLO 205, 72 h, 3 days, 4-parameter fit
# How it was run: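 Growth inhibition is expressed as the concentration giving 50% inhibition relative to vehicle controls, derived from a 4-parameter fit. Tumor cells plated at 500 per well were exposed for 3 days to compound (0.2% DMSO) before total ATP was quantified by CellTiter-Glo.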
# SK-MEL-28 tumor cells = assay: Method C: Cell Growth Inhibition Assay (CellTiter-Glo), SK-MEL-28; type: cell-based; settings: Homo sapiens, SK-MEL-28, 72 h, 3 days, 4-parameter fit
# How it was run: (§1)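 Cells plated at 500 cells/well, dosed next day with 10-point 1:3 dilution series (0.2% final DMSO) and grown 3 days at 37 °C, 5% CO2. CellTiter-Glo luminescence (total ATP) served as cell-number surrogate; inhibition relative to DMSO controls, IC50 interpolated by 4-parameter fit.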
# HT-29 tumor cells = assay: Method C: Cell Growth Inhibition Assay (CellTiter-Glo), HT-29; type: cell-based; settings: Homo sapiens, HT-29, 72 h, 3 days, 4-parameter fit
# Procedure: (§2) Human breast tumor cells (BT474) were cultured in RPMI (Mediatech 50-011-PB), containing 10% FBS (JRH Biosciences 12176) and 1% penicillin-streptomycin (Invitrogen 15140). Human head and neck tumor cells (HN5) were cultured in high glucose DMEM (Mediatech 50-013-PB) containing 10% FBS and 1% penicillin-streptomycin. Human colon tumor cells (Colo205) were cultured in RPMI (Mediatech 50-020-PB) containing 10% FBS and 1% penicillin-streptomycin. Human melanoma cancer cells (SK-MEL-28) were cultured in EMEM with nonessential amino acids (Mediatech 50-011-PB) containing 10% FBS, 1% sodium pyruvate (JT Baker 3354-04), and 1% penicillin-streptomycin. Human melanoma cancer cells (A375P F11s) were cultured in RPMI (Mediatech 50-020-PB) containing 10% FBS, 1% sodium pyruvate, and 1% penicillin-streptomycin. Human colon cancer cells (HT-29) were cultured in high glucose DMEM (Mediatech 50-013-PB) containing 10% FBS and 1% penicillin-streptomycin. Human melanoma cancer cells (SK-MEL-3) were cultured in McCoy's 5A (50-025-PB) containing 15% FBS, and 1% penicillin-streptomycin. All cell lines were maintained at 37° C. in a humidified 5% CO2, 95% air incubator. Cells were harvested using trypsin/EDTA (Invitrogen 25200), counted using an haemocytometer, and plated. For 96-well assays (using white full-area NUNC plates cat. #136102), cells were plated in 105 μL at the following densities (cells/well): HN5, 500; Colo205, 500; SK-MEL-28, 500; A375P-F11s, 500; HT-29, 500; SK-MEL-3, 500; and BT474, 3000. For 384-well assays (white full-area NUNC plates, cat. #781080), cells were plated in 48 μL at the following densities (cells/well): HN5, 500; Colo205, 500; SK-MEL-28, 500; A375P-F11s, 500; HT29, 500; SK-MEL-3, 500; and BT474, 2000.
# (§3) The next day, compounds were diluted as follow: For 96-well assays, 13.5 μL of compound in DMSO were diluted using nine (9) serial 1:3 dilutions of 4.5 μL in 9 μL of DMSO. Medium (270 μl/well of RPMI with 10% FBS and 1% penicillin-streptomycin) was added to the plates. Aliquots (7 μl) were added to cells in the final assay giving a final DMSO concentration of 0.2%. For 384-well assays, 15 μL of compound in DMSO were diluted using nine (9) serial 1:3 dilutions of 5 μL in 10 μL of DMSO, followed by a further dilution of 5 μL of compound with 95 μL of medium, of which 2 μL were added to cells in the final assay giving a final DMSO concentration of 0.2%. Cells were incubated at 37° C., 5% CO2 for 3 days.
# (§4) Total ATP was measured (as a surrogate estimate of cell number) using CellTiter-Glo® reagent (Promega G7571). Briefly, plates were removed from the incubator and allowed to equilibrate to room temperature for 30 minutes. CellTiter-Glo® (25 μL or 55 μL for 384-well or 96-well assays, respectively) reagent was added to each well and plates were shaken on an orbital plate shaker for 2 mins. Plates were incubated without shaking for a further 30 mins and read on an LJL Analyst GT reader in luminometer mode with an integration time of 0.5 seconds per well. Percent inhibition of cell growth was calculated relative to DMSO vehicle-treated control wells. Concentration of compound required to give 50% inhibition of vehicle-treated control cell growth (IC50) was interpolated using a 4-parameter fit for determining IC50 using the following equation: Y=A+((B−A)/(1+((C/X)̂D))) where X=IC50.
# HN5 tumor cells = assay: Method C: Cell Growth Inhibition Assay (CellTiter-Glo), HN5; type: cell-based; settings: Homo sapiens, 72 h, 3 days, 4-parameter fit
# How it was run: as §1
# A375P F11s tumor cells = assay: Method C: Cell Growth Inhibition Assay (CellTiter-Glo), A375P F11s; type: cell-based; settings: Homo sapiens, 72 h, 3 days, 4-parameter fit
# Procedure: as §2, §3, §4
# ErbB2 = target: T1, ErbB2 (Homo sapiens, UniProt P04626); assay: ErbB-2 substrate phosphorylation assay (HTRF); type: biochemical; settings: Method (A): Enzyme Mix incubated with compound at 20° C. for 1 hr, reaction started by adding Substrate Mix
# T1 construct: made in house; host or cells: baculovirus expression system
# T1 sequence (P04626 23-1255): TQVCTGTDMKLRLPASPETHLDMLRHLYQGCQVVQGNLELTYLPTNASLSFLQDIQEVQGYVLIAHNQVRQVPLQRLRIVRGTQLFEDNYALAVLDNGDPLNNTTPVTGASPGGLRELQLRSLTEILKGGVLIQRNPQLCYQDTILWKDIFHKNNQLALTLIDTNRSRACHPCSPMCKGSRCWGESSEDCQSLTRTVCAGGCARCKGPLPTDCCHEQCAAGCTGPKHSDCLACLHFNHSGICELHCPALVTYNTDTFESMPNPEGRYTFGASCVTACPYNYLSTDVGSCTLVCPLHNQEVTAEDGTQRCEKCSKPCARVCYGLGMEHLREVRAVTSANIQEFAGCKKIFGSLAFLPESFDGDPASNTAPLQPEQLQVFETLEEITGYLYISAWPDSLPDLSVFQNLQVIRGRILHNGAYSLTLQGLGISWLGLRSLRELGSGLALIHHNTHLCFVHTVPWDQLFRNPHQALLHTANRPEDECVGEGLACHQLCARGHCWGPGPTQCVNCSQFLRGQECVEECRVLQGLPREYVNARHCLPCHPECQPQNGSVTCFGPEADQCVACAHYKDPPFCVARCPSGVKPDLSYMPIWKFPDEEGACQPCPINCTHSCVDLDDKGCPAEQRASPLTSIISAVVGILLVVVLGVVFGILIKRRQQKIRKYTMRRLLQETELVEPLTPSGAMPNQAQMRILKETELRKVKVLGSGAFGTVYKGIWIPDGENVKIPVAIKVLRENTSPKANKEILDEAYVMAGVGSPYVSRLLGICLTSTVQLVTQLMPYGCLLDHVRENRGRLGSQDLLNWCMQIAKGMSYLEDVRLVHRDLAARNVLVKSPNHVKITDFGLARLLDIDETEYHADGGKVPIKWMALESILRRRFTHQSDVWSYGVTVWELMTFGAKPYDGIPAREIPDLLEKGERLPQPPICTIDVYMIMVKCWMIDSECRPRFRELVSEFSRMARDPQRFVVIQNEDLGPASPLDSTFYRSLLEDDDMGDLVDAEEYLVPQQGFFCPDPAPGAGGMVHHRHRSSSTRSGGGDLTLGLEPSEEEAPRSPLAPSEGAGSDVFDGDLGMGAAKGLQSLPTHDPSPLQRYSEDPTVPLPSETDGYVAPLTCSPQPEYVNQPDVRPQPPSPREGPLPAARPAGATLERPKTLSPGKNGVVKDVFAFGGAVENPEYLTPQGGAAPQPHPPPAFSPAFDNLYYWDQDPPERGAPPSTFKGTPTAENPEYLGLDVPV
# How it was run: (§5)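 Baculovirus-expressed kinase (0.8 nM EGFR or 10 nM ErbB2 in enzyme mix) with Peptide C 0.8 μM and ATP 20 μM (substrate-mix levels), MOPS pH 7.5, MnCl2; 90 min, 20 °C, HTRF anti-phosphotyrosine. Method A adds 1 h enzyme–compound preincubation; B none. pIC50, final compound 0.00027–47.6 μM.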
# BT474 tumor cells = assay: Method C: Cell Growth Inhibition Assay (CellTiter-Glo), BT474; type: cell-based; settings: Homo sapiens, BT-474, 72 h, 3 days, 4-parameter fit
# EGFR = target: T2, EGFR (Homo sapiens, UniProt P00533); assay: EGFR substrate phosphorylation assay (HTRF); type: biochemical; settings: Method (A): Enzyme Mix incubated with compound at 20° C. for 1 hr, reaction started by adding Substrate Mix
# T2 construct: made in house; host or cells: baculovirus expression system
# T2 sequence (P00533 25-1210): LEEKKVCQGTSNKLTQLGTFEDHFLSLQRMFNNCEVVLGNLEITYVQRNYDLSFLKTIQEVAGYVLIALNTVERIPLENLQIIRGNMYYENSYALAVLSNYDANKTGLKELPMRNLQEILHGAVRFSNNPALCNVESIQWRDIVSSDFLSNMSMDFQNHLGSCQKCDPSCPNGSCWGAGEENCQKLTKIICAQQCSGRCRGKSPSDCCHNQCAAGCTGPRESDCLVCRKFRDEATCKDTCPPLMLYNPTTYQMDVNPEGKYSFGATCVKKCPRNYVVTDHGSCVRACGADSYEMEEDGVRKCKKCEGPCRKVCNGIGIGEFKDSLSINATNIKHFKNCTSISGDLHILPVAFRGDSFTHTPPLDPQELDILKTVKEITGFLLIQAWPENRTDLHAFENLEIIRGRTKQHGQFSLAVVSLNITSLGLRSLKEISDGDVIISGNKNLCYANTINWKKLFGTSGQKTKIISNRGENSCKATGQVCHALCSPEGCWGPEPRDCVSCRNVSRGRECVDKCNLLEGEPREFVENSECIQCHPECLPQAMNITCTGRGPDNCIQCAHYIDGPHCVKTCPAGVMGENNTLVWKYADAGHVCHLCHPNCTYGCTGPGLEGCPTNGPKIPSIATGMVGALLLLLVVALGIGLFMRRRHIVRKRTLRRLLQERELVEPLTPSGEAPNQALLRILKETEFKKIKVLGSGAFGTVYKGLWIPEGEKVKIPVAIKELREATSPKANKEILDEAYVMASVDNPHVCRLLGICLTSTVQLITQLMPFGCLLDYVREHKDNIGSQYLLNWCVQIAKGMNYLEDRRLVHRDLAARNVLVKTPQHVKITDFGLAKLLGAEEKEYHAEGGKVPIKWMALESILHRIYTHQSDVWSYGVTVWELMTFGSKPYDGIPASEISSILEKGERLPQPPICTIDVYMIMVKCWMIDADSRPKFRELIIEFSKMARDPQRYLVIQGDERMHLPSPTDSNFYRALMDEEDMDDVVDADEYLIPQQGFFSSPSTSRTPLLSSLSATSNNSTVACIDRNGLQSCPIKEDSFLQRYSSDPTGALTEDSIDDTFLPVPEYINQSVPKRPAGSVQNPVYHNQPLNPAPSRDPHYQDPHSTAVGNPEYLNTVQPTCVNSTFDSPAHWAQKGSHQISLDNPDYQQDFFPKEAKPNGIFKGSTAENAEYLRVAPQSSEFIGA
# How it was run: as §5
# SK-MEL-3 tumor cells = assay: Method C: Cell Growth Inhibition Assay (CellTiter-Glo), SK-MEL-3; type: cell-based; settings: Homo sapiens, SK-MEL3, 72 h, 3 days, 4-parameter fit
# Procedure: as §2, §3, §4
Structure (SMILES),IC50 (Colo205 tumor cells) [nM],IC50 (SK-MEL-28 tumor cells) [nM],IC50 (HT-29 tumor cells) [nM],IC50 (HN5 tumor cells) [nM],IC50 (A375P F11s tumor cells) [nM],IC50 (ErbB2) [nM],IC50 (BT474 tumor cells) [nM],IC50 (EGFR) [nM],IC50 (SK-MEL-3 tumor cells) [nM]
CN(C)CCOc1ccc(Nc2nccc(-c3sc(N)nc3-c3cccc(NC(=O)c4cc(F)ccc4F)c3)n2)cc1Cl [Example 56],100 to 1000,> 1000,100 to 1000,< 100,100 to 1000,< 100,< 100,< 100,> 1000
CN(C)CCOc1ccc(Nc2nccc(-c3sc(N)nc3-c3ccc(F)c(NC(=O)c4c(F)cccc4F)c3)n2)cc1Cl [Example 67],< 100,100 to 1000,100 to 1000,< 100,100 to 1000,< 100,< 100,< 100,100 to 1000
"CN(C)CCOc1ccc(Nc2nccc(-c3sc(N)nc3-c3cc(NC(=O)c4c(F)cccc4F)ccc3F)n2)cc1Cl [Example 68, N-[3-(2-Amino-5-{2-[(3-chloro-4-{[2-(dimethylamino)ethyl]oxy}phenyl)amino]-4-pyrimidinyl}-1,3-thiazol-4-yl)-4-fluorophenyl]-2,6-difluorobenzamide]",100 to 1000,100 to 1000,100 to 1000,< 100,100 to 1000,< 100,< 100,< 100,100 to 1000
"CN(C)CCOc1ccc(Nc2nccc(-c3sc(N4CCCCC4)nc3-c3cccc(NC(=O)c4c(F)cccc4F)c3)n2)cc1Cl [Example 72, N-{3-[5-{2-[(3-Chloro-4-{[2-(dimethylamino)ethyl]oxy}phenyl)amino]-4-pyrimidinyl}-2-(1-piperidinyl)-1,3-thiazol-4-yl]phenyl}-2,6-difluorobenzamide]",> 1000,> 1000,100 to 1000,100 to 1000,> 1000,< 100,> 1000,< 100,> 1000
"CN(C)CCOc1ccc(Nc2nccc(-c3sc(N)nc3-c3cccc(C(=O)Nc4c(F)cccc4F)c3)n2)cc1Cl [Example 75, 3-(2-Amino-5-{2-[(3-chloro-4-{[2-(dimethylamino)ethyl]oxy}phenyl)amino]-4-pyrimidinyl}-1,3-thiazol-4-yl)-N-(2,6-difluorophenyl)benzamide]",100 to 1000,> 1000,100 to 1000,100 to 1000,100 to 1000,< 100,< 100,< 100,100 to 1000
"CN(C)CCOc1cccc(Nc2nccc(-c3scnc3-c3cccc(NC(=O)c4c(F)cccc4F)c3)n2)c1 [Example 79, N-[3-(5-{2-[(3-{[2-(Dimethylamino)ethyl]oxy}phenyl)amino]-4-pyrimidinyl}-1,3-thiazol-4-yl)phenyl]-2,6-difluorobenzamide-formic acid]",100 to 1000,> 1000,100 to 1000,< 100,100 to 1000,< 100,< 100,< 100,> 1000
